Several values for one entry are separate records, joined by “and”; a condition that tells them apart may be missing. Identical values can stand only once. Like-named read-outs stand apart in the source and are kept apart here. Marks after values point to notes of the source that are not given here.
Tests used:
[1] = test system: juvenile rainbow trout (Oncorhynchus mykiss); test: Bioconcentration (BCF) experiment based on OECD 305, aqueous exposure to surfactant mixtures; format: in vivo; conditions: for BCF (kU/kT) / uptake rate constant (kU) / measured total elimination rate constant (kT): whole fish; for factor by which BCF is lower for the QAC than for the tertiary amine with the same chain length: pH 7.6, Q10 vs T10, Q14 vs T14; for uptake rate constant (kU): 14 d exposure, 28 d depuration
Method: (§1) Juvenile rainbow trout were purchased from EM lax in Västervik, Sweden, and held in the aquaria facility for one month prior to starting the experiment on August 28, 2018. Ethical approval for the experiments was obtained from Stockholm’s djurförsöksetiska nämnd (decision 9967–2017). The experiment was conducted in six 350 L fiberglass aquaria with a water renewal rate of 1.5 L min^–1 corresponding to a turnover time of […]. The water temperature and the air temperature in the aquaria room were 10 °C. The lighting was dim and programmed on a 12 h light/12 h dark cycle.
(§2) Three BCF experiments were conducted, one each for MIX1 and MIX2 at pH ∼7.6 (denoted MIX1 and MIX2 in the following), and one for MIX1 at pH ∼6.2 (MIX1pH). Each experiment consisted of a 14 d exposure phase and a 28 d depuration phase. There were also two control aquaria where unexposed fish were kept, one at pH 7.6 and one at pH 6.2. For the pH 6.2 aquaria, a 20% v:v formic acid solution was pumped into a premixing basin where it was mixed with the inflowing water before entering the aquarium. pH sensors monitored pH in the premixing basin and the aquarium. The pH for the MIX1 and MIX2 experiments was governed by the pH of the water supply. Water samples were collected at 8 time points during each experiment for the determination of pH and alkalinity. Water samples were collected daily during the exposure phase for determination of total organic carbon (TOC), which was measured with NDIR detection after acidification, purging and high-temperature catalytic combustion (Shimadzu TOC-L).
(§3) For the exposure phase, a methanol solution of the test chemical mixture was infused continuously at 4.0 μL min^–1 into the water inflow of the aquarium using a syringe pump. The target concentrations of the chemicals in water ranged from 2.5 to 100 μg L^–1 (Table 1). They were selected to be as low as possible to minimize the risk of toxic effects while still being high enough to enable collection of high-quality data, building on the results of the tissue distribution experiment.[32] The syringe pump was started in an aquarium containing no fish. After 16 h to allow the concentrations to stabilize, ∼80 rainbow trout were transferred to the aquarium. Over the following 14 d water samples were collected and fish were sacrificed according to the schedule in Table S5. The remaining fish were then transferred to a second aquarium that received water without chemical addition. Over the following 28 d further water samples were collected and fish were sacrificed (Table S5).
(§4) At each fish sampling, 4–6 fish were sacrificed. Fish were also sampled periodically from the control aquaria. Following stunning and severance of the spinal cord, the fish were placed in a polyethylene bag, weighed, and immediately frozen at −20 °C. The median fish weight at sacrifice was 10.94 g, with a 25th and 75th percentile of 8.43 and 13.58 g, respectively.
(§5) Three fish from each time point were prioritized for analysis based on proximity to the median fish weight. Each fish was semithawed, cut into 3–4 pieces, and homogenized with an Ultra-Turrax device. 150 mg of the homogenate was transferred to a preweighed 13 mL polypropylene tube, centrifuged to a pellet, and weighed. 50 μL of methanol was added and the prepared aliquot was frozen. For extraction internal standard solution (isotope labeled standards of Q10 (D21), Q14 (D29), and P16 (D33)), 3 mL of methanol and 3 steel balls (3.2 mm diameter) were added to the prepared aliquot. This mixture was mixed in a bullet blender for 1 min, and then placed in an ultrasound bath at 50 °C for 60 min. Following centrifugation, the supernatant was decanted and the extraction was repeated. The extracts were combined and a portion corresponding to 25–50 mg homogenate was cleaned up on a weak cationic exchange SPE column (WCX, 60 mg) as described elsewhere.[32] […]

[2] = ref Timmer and Droge (2017); cited from earlier work
[3] = design: method as in REACH dossier; conditions: aqueous; ref REACH dossier; cited from earlier work
[4] = design: method as in Perrin 1965, SRC, REACH, Perrin 1972, Hall 1957; conditions: ref Perrin 1965, SRC, REACH, Perrin 1972, Hall 1957, cited from earlier work; for pKa, experimental reference data: 25 °C; for pKa used (selected value): selected per amine type, weighted from simulated and experimental analogue data
[5] = test system: gills of rainbow trout; test: Mechanistic one-box mass balance model of gill uptake and elimination; conditions: for predicted gill elimination rate constant eq 1 (k2): from measured kU and modeled αW, αB, DFW
Description: To gain more mechanistic insight into the results, we formulated a simple one-box mass balance model of chemical bioconcentration in fish that considered diffusive uptake and elimination across the gills as well as biotransformation.[33] The flow of water across the gills and the flow of blood through the gills were modeled as perfusion limited resistances that constrain gill uptake and elimination. […] Consequently, these resistances are unknowns. Ion trapping effects caused by differences in pH between water at the gill surface and blood in the gills are considered, drawing on previous work on the uptake and elimination of ionizable organic chemicals across the gills of rainbow trout.[22],[23] Partitioning of the chemical from the dissolved phase into blood and into whole fish was calculated as the product of the membrane lipid–water distribution ratio (DMLW,T, including partitioning of both the neutral and the charged forms) and the fraction of membrane lipid in blood and whole fish. A detailed description of the model is provided in the SI (Text S3).
The contribution of the water perfusion and blood perfusion resistances were compared with the overall resistance for transport across the gills from water to blood (RW→B), which was calculated from the measured kU according to equation S4.3. […] For all of the other chemicals the blood resistance is insignificant compared to the overall resistance.
The rate constant for elimination across the gills, k2, can be defined as follows: [drawing 1] 1 where αB and αW are the neutral fractions of the chemical in the blood and in the water at the gill surface, respectively, and DFW is the fish-water distribution ratio of the chemical at the pH of blood (8.1) (see Text S3). Using the measured kU and the values of αW, αB, and DFW estimated for the model, k2 was calculated (Table 2).

[6] = Bioconcentration (BCF) experiment based on OECD 305, aqueous exposure to surfactant mixtures; format: in vivo, Oncorhynchus mykiss; conditions: whole fish, read-out: measured total elimination rate constant (kT) (converted)
Method: as §1, §2, §3, §4, §5

CCCCCCCCCC[N+](C)(C)C [Q10, N,N,N-trimethyl-1-decylammonium]
BCF (kU/kT) ([1]; pH 7.6 (MIX1, MIX2)): <0.2 ^c L kg^–1
factor by which BCF is lower for the QAC than for the tertiary amine with the same chain length [1]: > 670
Log DMLW,C (membrane-water partition coefficient of the charged form) [2]: 3.34

CCCCCCCC/C=C/CCCCCCCCN(CCO)CCO [2-[(2-hydroxyethyl)[(9E)-octadec-9-en-1-yl]amino]ethan-1-ol]
SURFACE TENSION [3]: 27 mN/m

CCCCCCCCN [octan-1-amine]
SURFACE TENSION [3]: 44.2 mN/m

CCCCCCCCCCCCCCCCCCN(C)C [dimethyl(octadecyl)amine]
SURFACE TENSION [3]: 32.2 mN/m

CCCCCCN [hexylamine, reference compound]
pKa, experimental reference data [4]: 10.64

CCCCCCCCCCCCCCCCCCN [octadecan-1-amine]
SURFACE TENSION [3]: 23.9 mN/m

CCCCCCCCCCCCCCCCN(C)C [N,N-dimethylhexadecan-1-amine]
SURFACE TENSION [3]: 30.5 mN/m

CCCCCCCCCC[N+](C)(C)CCCCCCCCCC.CCCCCCCCCC[N+](C)(C)CCCCCCCCCC.O=C([O-])CCCCC(=O)[O-] [1-Decanaminium,N-decyl-N,N-dimethyl-, hexanedioate(2:1)]
SURFACE TENSION [3]: 32.3 mN/m

CCCCCCCCCCCCN [dodecan-1-amine]
SURFACE TENSION [3]: 23.1 mN/m

CCCCCCCCCN [P9, Nonylamine]
factor by which BCF is lower at pH 6.2 than at pH 7.6 ([1]; MIX1 vs MIX1pH): 22
BCF (kU/kT) ([1]; pH 6.2 (MIX1pH)): 0.1 ^b L kg^–1
BCF (kU/kT) ([1]; pH 7.6 (MIX1, MIX2)): 2.2 L kg^–1
pKa used (selected value) [4]: C9NH2 (10.6)
Log DMLW,C (membrane-water partition coefficient of the charged form) [2]: 3.72

CCCCCCCCCCN(C)C [T10, N,N-dimethyldecylamine]
factor by which BCF is lower at pH 6.2 than at pH 7.6 ([1]; MIX1 vs MIX1pH): 17
factor by which kT is greater at pH 6.2 than at pH 7.6 ([1]; MIX1 vs MIX1pH): 1.7
factor by which kU is lower at pH 6.2 than at pH 7.6 ([1]; MIX1 vs MIX1pH): 10
uptake rate constant (kU) ([1]; pH 6.2 (MIX1pH)): 1.02 L kg^–1 h^–1
BCF (kU/kT) ([1]; pH 6.2 (MIX1pH)): 7.9 L kg^–1
measured total elimination rate constant (kT) ([1]; pH 6.2 (MIX1pH)): 0.129 h^–1
uptake rate constant (kU) ([1]; pH 7.6 (MIX1, MIX2), 10 °C): 9.9 L kg^–1 h^–1
BCF (kU/kT) ([1]; pH 7.6 (MIX1, MIX2)): 134 L kg^–1
measured total elimination rate constant (kT) ([1]; pH 7.6 (MIX1, MIX2)): 0.074 h^–1
k2/kT ([5]; pH 6.2 (MIX1pH)): 4.1
predicted gill elimination rate constant eq 1 (k2) ([5]; pH 6.2 (MIX1pH)): 0.53 h^–1
factor by which k2 exceeded kT ([5]; pH 6.2 experiment): 4
factor by which k2 exceeded kT ([5]; pH 7.6): ~5
k2/kT ([5]; pH 7.6 (MIX1, MIX2)): 5.0
predicted gill elimination rate constant eq 1 (k2) ([5]; pH 7.6 (MIX1, MIX2)): 0.37 h^–1
pKa used (selected value) [4]: C10N(CH3)2 (10.0)
Log DMLW,C (membrane-water partition coefficient of the charged form) [2]: 3.65

CCCCNCCCC [N-butylbutan-1-amine]
SURFACE TENSION [3]: 50.6 mN/m

CCCCCCCCCCCCN [P12, Dodecylamine]
k el ([6]; pH 6.2 (MIX1pH)): 1.42e-05 s⁻¹
k el ([6]; pH 7.6 (MIX1, MIX2)): 2.25e-06 s⁻¹
factor by which BCF is lower at pH 6.2 than at pH 7.6 ([1]; MIX1 vs MIX1pH): 34
uptake rate constant (kU) ([1]; pH 6.2 (MIX1pH)): 0.36 L kg^–1 h^–1
BCF (kU/kT) ([1]; pH 6.2 (MIX1pH)): 7.1 L kg^–1
uptake rate constant (kU) ([1]; pH 7.6 (MIX1, MIX2), 10 °C): 2.0 L kg^–1 h^–1
BCF (kU/kT) ([1]; pH 7.6 (MIX1, MIX2)): 250 L kg^–1
factor by which k2 was less than kT [5]: ~10
pH dependency of k2 (factor between pH 7.6 and pH 6.2) ([5]; MIX1 vs MIX1pH): 2.5
Uptake resistance ([5]; lower pH (6.2), value printed in Figure 3): 744 h m^-1
k2/kT ([5]; pH 6.2 (MIX1pH)): 0.04
predicted gill elimination rate constant eq 1 (k2) ([5]; pH 6.2 (MIX1pH)): 0.0022 h^–1
k2/kT ([5]; pH 7.6 (MIX1, MIX2)): 0.11
predicted gill elimination rate constant eq 1 (k2) ([5]; pH 7.6 (MIX1, MIX2)): 0.0009 h^–1
Log DMLW,C (membrane-water partition coefficient of the charged form) [2]: 5.58

CCCCNC [N-methylbutylamine, reference compound]
pKa, experimental reference data [4]: 10.9

CCCN(C)C [N,N-dimethylpropylamine, reference compound]
pKa, experimental reference data [4]: 9.99

CCCCCCCCN [octylamine, reference compound]
pKa, experimental reference data [4]: 10.7 and 10.6

CCCCCCCCCCCCCC[N+](C)(C)C [Q14, N,N,N-trimethyl-1-tetradecylammonium]
initial rapid sorption as share of the cumulative uptake over 14 d ([1]; 14 d exposure phase): < 5%
factor by which BCF is lower at pH 6.2 than at pH 7.6 ([1]; MIX1 vs MIX1pH): no influence of pH on BCF
factor by which kU is lower at pH 6.2 than at pH 7.6 ([1]; MIX1 vs MIX1pH): the same
uptake rate constant (kU) ([1]; pH 6.2 (MIX1pH)): 0.121 L kg^–1 h^–1
BCF (kU/kT) ([1]; pH 6.2 (MIX1pH)): 55 L kg^–1
measured total elimination rate constant (kT) ([1]; pH 6.2 (MIX1pH)): 0.0022 h^–1
uptake rate constant (kU) ([1]; pH 7.6 (MIX1, MIX2), 10 °C): 0.104 L kg^–1 h^–1
BCF (kU/kT) ([1]; pH 7.6 (MIX1, MIX2)): 51 L kg^–1
measured total elimination rate constant (kT) ([1]; pH 7.6 (MIX1, MIX2)): 0.0020 h^–1
factor by which BCF is lower for the QAC than for the tertiary amine with the same chain length [1]: 160
Log DMLW,C (membrane-water partition coefficient of the charged form) [2]: 5.46

CCCCN(C)C [N,N-dimethylbutylamine, reference compound]
pKa, experimental reference data [4]: 10.02

CCCCCCCCCCCCCC[N+](C)(C)CCCCCCCCCCCCCC.[Cl-] [N,N-dimethyl-N-tetradecyltetradecan-1-aminium chloride]
SURFACE TENSION [3]: 28 mN/m

CCCCCCCCCCCCCC[N+](C)(C)Cc1ccccc1.[Cl-] [benzyldimethyltetradecylazanium chloride]
SURFACE TENSION [3]: 34.5 mN/m
